Data published in BindingDB's records for doi:10.1016/j.bmc.2008.11.020 (Astellas Pharma, 2008).

Assays:
[1] = Antagonist activity at mouse CCR4 receptor expressed in mouse B300-19 cells assessed as CCL22-induced chemotaxis
[2] = Antagonist activity at human CCR4 receptor expressed in mouse B300-19 cells assessed as CCL22-induced chemotaxis

Row | Structure (SMILES) | IC50 [1] | IC50 [2]
1 | COc1cc2nc(N3CCC(N4CCCC(CO)C4)CC3)nc(NCCc3ccc(Cl)cc3)c2cc1OC (stereo unspecified) [1'-(4-{[2-(4-Chlorophenyl)ethyl]amino}-6,7-dimethoxyquinazolin-2-yl)-1,40-bipiperidin-3-yl]methanol] | 390 nM | –
2 | COc1cc2nc(N3CCC(N4CCCC(O)C4)CC3)nc(Nc3ccc(Cl)cc3)c2cc1OC (stereo unspecified) [1'-{4-[(4-Chlorophenyl)amino]-6,7-dimethoxyquinazolin-2-yl}-1,4'-bipiperidin-3-ol] | 430 nM | 85 nM
3 | COc1cc2nc(N3CCC(N4CCCC(CO)C4)CC3)nc(NCc3ccc(Cl)cc3)c2cc1OC (stereo unspecified) [(1'-{4-[(4-Chlorobenzyl)amino]-6,7-dimethoxyquinazolin-2-yl}-1,4'-bipiperidin-3-yl)methanol] | 140 nM | 450 nM
4 | COc1cc2nc(N3CCC(N4CCCC(CO)C4)CC3)nc(Nc3ccc(Cl)cc3)c2cc1OC (stereo unspecified) [(1'-{4-[(4-Chlorophenyl)amino]-6,7-dimethoxyquinazolin-2-yl}-1,4'-bipiperidin-3-yl)methanol] | 58 nM | 23 nM
5 | COCC1CCCN(C2CCN(c3nc(Nc4ccc(Cl)cc4)c4cc(OC)c(OC)cc4n3)CC2)C1 (stereo unspecified) [N-(4-Chlorophenyl)-6,7-dimethoxy-2-[3-(methoxymethyl)-1,4'-bipiperidin-1'-yl]quinazolin-4-amine] | 230 nM | 64 nM
6 | COc1cc2nc(N3CCC(N4CCCC(OC)C4)CC3)nc(Nc3ccc(Cl)cc3)c2cc1OC (stereo unspecified) [N-(4-chlorophenyl)-6,7-dimethoxy-2-(3-methoxy-1,4'-bipiperidin-1'-yl)quinazolin-4-amine] | 420 nM | 510 nM
7 | COc1cc2nc(N3CCC(N4CCCCC4)CC3)nc(NC3CCCCCC3)c2cc1OC [N-cycloheptyl-6,7-dimethoxy-2-(4-(piperidin-1-yl)piperidin-1-yl)quinazolin-4-amine] | 39 nM | 140 nM
8 | COc1cc2nc(N3CCC(N4CCOC(CO)C4)CC3)nc(Nc3ccc(Cl)cc3)c2cc1OC (stereo unspecified) [[4-(1-{4-[(4-Chlorophenyl)amino]-6,7-dimethoxyquinazolin-2-yl}piperidin-4-yl)morpholin-2-yl]methanol] | – | 620 nM
9 | COc1cc2nc(N3CCC(N4CCCC(CO)C4)CC3)nc(NC3CCCCCC3)c2cc1OC (stereo unspecified) [{1'-[4-(Cycloheptylamino)-6,7-dimethoxyquinazolin-2-yl]-1,4'-bipiperidin-3-yl}methanol] | 19 nM | 100 nM
